Test results as given in patent US20120107916A1, “METHODS AND COMPOSITIONS FOR AFFECTING THE DIFFERENTIATION OF CLOSTRIDIA IN CULTURE” (priority 2009, published 2012).

Tested on: C. beijerinckii NCIMB 8052
Test: Final pH of cell-free culture supernatants of sequential batch cultures
Format: cell-based, Clostridium beijerinckii
Procedure: Bacterial strains and media. Clostridium acetobutylicum ATCC 824 and C. beijerinckii NCIMB 8052 are available from several commercial microbial culture collections including the American Type Culture Collection (ATCC), Manassas, Va., USA. The strains were grown at 30° C. or 37° C. in YE broth, which contained, per liter: 5.0 g yeast extract, 2.5 g casamino acids, 1.0 g L-asparagine, 0.5 g cysteine.HCl, 56 mg K2HPO4, 56 mg KH2PO4, 82 mg anhydrous MgSO4, 8 mg FeSO4.H2O, 6 mg MnSO4.H2O and 10 g glucose. Alternatively, strains were grown in YEPG broth, which was identical to YE expect that K2HPO4 and KH2PO4 were increased to 145 mg/L each and glucose was increased to 60 g/L. The pH of the media was adjusted to 7.2 using 45% KOH prior to sterilization by autoclaving. Media were solidified by addition of 1.5% Bacteriological Agar, Actimedia Manufacturers, Inc., Lansing, Mich. All cultures were grown in anaerobic conditions using the AnaeroPack System, Mitsubishi Gas Chemical Co., Inc., Japan, and GasPak EZ Gas Generating Sachets, Becton, Dickinson and Co., Sparks, Md. Spore stocks were kept at room temperature on agar-solidified media and were activated by suspending spores in 0.5 mL to 1.0 mL of medium followed by heating for 10 min at 80° C. before inoculation into growth medium.
Growth and pH measurements. Growth of bacterial cultures was measured spectrophotometrically using optical density at 600 nm and pH of cell-free culture supernatants was measured using a hand-held Shindengen ISFET pH Meter KS501, Shendengen Electric Manufacturing Co., Ltd., Bannockburn, Ill.
Effect of peptide SEQ ID NO:145 addition on sequential batch cultures of C. beijerinckii NCIMB 8052 grown at 30° C. Spores of C. beijerinckii NCIMB 8052 were germinated and grown overnight at 30° C. under anaerobic conditions in YEPG medium. After about 24 h of growth, […] of the culture was transferred (transfer 1) to each of four flasks that contained 10 mL of YEPG and either had no treatment or were treated with peptide SEQ ID NO:145 (see Table 8) at 1 nM, 10 nM or 50 nM. Thereafter, 75 μL of each culture was transferred, at the same time, every 24-48 h to 10 mL of fresh YEPG that contained the same peptide treatment or no treatment. Each culture was stopped after 96 hours of incubation and optical density, pH and ceric ion reactive chemicals were measured. Sequential batch culturing was continued through 6 transfers at which point all cultures appeared to be growing to the same extent (Table 12 and FIG. 4).
Effect of peptide SEQ ID NO:145 addition on sequential batch cultures of C. beijerinckii NCIMB 8052 grown at 37° C. Spores of C. beijerinckii NCIMB 8052 were germinated and grown overnight at 37° C. under anaerobic conditions in YEPG medium that either contained 50 nM of peptide SEQ ID NO:145 or no added peptide. After about 24 h of growth, 10 μL of the untreated culture was transferred (transfer 1) to each of two flasks that contained 10 mL of YEPG with either no treatment or with 50 nM peptide SEQ ID NO:145. At the same time, 10 μL of the culture that was germinated in the presence of peptide SEQ ID NO:145 was also transferred to 10 mL of YEPG that contained 50 nM of peptide SEQ ID NO:145. Thereafter, 10 μL of each culture was transferred, at the same time, every 24-48 h to 10 mL of fresh YEPG that contained the same peptide treatment or no treatment. Each culture was stopped after 72 hours of incubation and optical density, pH and ceric ion reactive chemicals were measured. Addition of peptide SEQ ID NO:145 appeared to have no effect on endpoint measurements of the growth of C. beijerinckii NCIMB 8052 after germination or during sequential transfers of cultures at 37° C. (Table 18 and FIG. 10). All three cultures stopped growing at the second transfer.

## IRLIT (Derived from Clostridium beijerinckii SEQ ID NO: 141) [Peptide SEQ ID NO:145, pentapeptide from C. beijerinckii NCIMB 8052 locus Cbei_1065; chemically synthesized putative autoinducing peptide]
1 nM peptide, transfer 1, 96 h, 30° C.
  Final pH of culture broths: 5.3
1 nM peptide, transfer 2, 96 h, 30° C.
  Final pH of culture broths: 5.3
1 nM peptide, transfer 3, 96 h, 30° C.
  Final pH of culture broths: 5.1
1 nM peptide, transfer 4, 96 h, 30° C.
  Final pH of culture broths: 5.3
1 nM peptide, transfer 5, 96 h, 30° C.
  Final pH of culture broths: 5.3
1 nM peptide, transfer 6, 96 h, 30° C.
  Final pH of culture broths: 5.3
10 nM peptide, transfer 1, 96 h, 30° C.
  Final pH of culture broths: 5.3
10 nM peptide, transfer 2, 96 h, 30° C.
  Final pH of culture broths: 5.3
10 nM peptide, transfer 3, 96 h, 30° C.
  Final pH of culture broths: 5.0
10 nM peptide, transfer 4, 96 h, 30° C.
  Final pH of culture broths: 5.3
10 nM peptide, transfer 5, 96 h, 30° C.
  Final pH of culture broths: 5.4
10 nM peptide, transfer 6, 96 h, 30° C.
  Final pH of culture broths: 5.3
50 nM peptide added after germination, transfer 1, 72 h, 37° C.
  Final pH of culture broths: 4.1
50 nM peptide added after germination, transfer 2, 72 h, 37° C.
  Final pH of culture broths: 6.5
50 nM peptide, 37° C.
  Effect on endpoint measurements of pH: no apparent effect
50 nM peptide, transfer 1, 96 h, 30° C.
  Final pH of culture broths: 5.4
50 nM peptide, transfer 2, 96 h, 30° C.
  Final pH of culture broths: 5.3
50 nM peptide, transfer 3, 96 h, 30° C.
  Final pH of culture broths: 5.2
50 nM peptide, transfer 4, 96 h, 30° C.
  Final pH of culture broths: 5.3
50 nM peptide, transfer 5, 96 h, 30° C.
  Final pH of culture broths: 5.3
50 nM peptide, transfer 6, 96 h, 30° C.
  Final pH of culture broths: 5.3
50-50: germinated and transferred in 50 nM peptide, transfer 1, 72 h, 37° C.
  Final pH of culture broths: 4.1
50-50: germinated and transferred in 50 nM peptide, transfer 2, 72 h, 37° C.
  Final pH of culture broths: 6.6
50-50: spores germinated in 50 nM peptide, transfer 0 (germinated culture), 72 h, 37° C.
  Final pH of culture broths: 4.1
